These results are taken from patent US8568986B2, “Method of selecting an agent that improves periodontal disease” (Kao Corporation, priority 2009, dated 2013).

For experiment [1], the system named is Vibrio harveyi BB170 strain (AI-2 reporter bacterium). Put plainly: AI-2 activity inhibitory effect, photogenesis intensity of AI-2 reporter bacterium after addition of DPD. To be noted: relative to control with only DPD added (=100); 10 min preincubation, 4 h culture at 30° C. Type of experiment: cell-based. As for the experimental part:
The method of screening an improving agent or preventive agent for periodontal disease of the present invention containing mixing a bacterium having an autoinducer-2-mediated quorum sensing system with a test drug and selecting a test drug having an autoinducer-2 activity inhibitory effect as an improving agent or preventive agent for periodontal disease. For example, a Vibrio harveyi BB 170 strain is prepared in a culture medium at 1000- to 10000-fold dilution (preferably 4000- to 5000-fold) and preincubated with a test compound solution at room temperature for 1 to 30 minutes (preferably for 10 minutes). Then, AI-2 was added to the resultant solution, which was subjected to aerobic shaking culture at 30±5° C. Two (2) to six (6) hours later (preferably four (4) hours later), the photogenesis intensity is measured with a chemiluminescence analyzer. The final concentration of AI-2 is from 0.001 to 100 μM (preferably 10 μM). The final concentration of the test compound solutions is from 0.0001 to 0.1% or from 1 to 100 μM. Each concentration is not limited thereto. The photogenesis intensity when a control obtained by adding only the AI-2 is mixed with the test compound solution is measured as a relative value to the photogenesis intensity of control so that the AI-2 activity inhibitory effect of the test compound can be measured. The bacterium having an autoinducer-2-mediated quorum sensing system is not particularly limited. A reporter bacterium which recognizes the autoinducer-2 thereby emitting light is preferred and dental bacteria and periodontal pathogens can also be used. Further, the bacterium having an autoinducer-2-mediated quorum sensing system which is collected from the oral cavity of a subject can also be used as a specimen.
A Vibrio harveyi BB170 strain (cultured in an AB medium at 30° C. overnight) was used as an AI-2 reporter bacterium and it was 4500-fold diluted with an AB culture medium to prepare a reporter bacterium liquid. A reporter bacterium liquid was mixed with each of the test drugs, which was preincubated at room temperature for 10 minutes, followed by addition of DPD and aerobic shaking culture at 30° C. Four (4) hours later, the photogenesis intensity was measured with the chemiluminescence analyzer (LB940 type, manufactured by Berthold Japan co. ltd.). AI-2 was quantified from the measured photogenesis intensity in the same manner as described in Example 1.
The amount of AI-2 was a relative value to the amount of DPD of the control (the amount of AI-2) when one obtained by adding only the DPD without adding the test drugs was used as a control.

For another experiment, the system named is syrian hamsters. Put plainly: Alveolar bone resorption in floss-tied mandibular first molars of syrian hamsters. Type of experiment: in vivo. Conditions: syrian hamster; for Alveolar bone resorption depth (mm): 200 μL of 10 μM solution dropwise to floss-tied first molars twice a day for two weeks, control 2.87; for absorption of the alveolar bone: added dropwise to the oral cavity for two weeks. The protocol:
The mandibule of syrian hamsters (three males, 7 weeks old) was extracted under anesthesia and a photograph was taken under the stereoscopic microscope. An evaluation site is the lingual surface of extraction mandibule. The obtained photographs were subjected to image analysis and a vertical distance from the first molar mesial cusp tip to the alveolar tip was measured.
Floss was tied around the left and right mandibular first molar teeth of other syrian hamsters (three males, 7 weeks old). From the next day on, 200 μL of a PBS solution containing 1% DMSO (concentration: 10 μM) of Compound 1 or 2 above was added dropwise to the same tied sites twice a day for two weeks and they were bred.
After the end of breeding, the mandibule was extracted under anesthesia and photographs were taken under the stereoscopic microscope. An evaluation site is the lingual surface of extraction mandibule and the taken photographs were subjected to image analysis. […] a vertical distance from the first molar mesial cusp tip to the alveolar tip was measured.
The alveolar bone resorption depth (a value before addition is subtracted from a value after addition for two weeks) was measured from the vertical distance from the first molar mesial cusp tip to the alveolar tip before addition of the test drug and after addition of the test drug for two weeks.

`COc1ccc(C2OC(=O)C=C2Br)cc1` (centres unmarked) [Compound 1, 4-bromo-5-(4-methoxyphenyl)-2(5H)-furanone]: the “AI-2 amount (relative value)” value in experiment [1] turned out to be 29.6. Besides, in the experiment on syrian hamsters, the “Alveolar bone resorption depth (mm)” value was determined as 2.50 mm and the “absorption of the alveolar bone” value is on record as “suppressed”. For `O=C1OC(O)C(Br)=C1Br` (centres unmarked) [Compound 2, 3,4-dibromo-5-hydroxy-2(5H)-furanone] the same measures were 0, 2.62 mm and “suppressed”.

On to `COc1ccc(C2(OC)OC(=O)C=C2Br)cc1` (centres unmarked) [Compound 3, 4-bromo-5-methoxy-5-(4-methoxyphenyl)-2(5H)-furanone], for which the “AI-2 amount (relative value)” value in experiment [1] is 62.5.

Turning to `COc1ccc(C2(Oc3ccc(C(=O)O)cc3)OC(=O)C=C2Br)cc1` (centres unmarked) [Compound 4, 4-{[3-bromo-2-(4-methoxyphenyl)-5-oxo-2,5-dihydro-2-furanyl]oxy}benzoate], the “AI-2 amount (relative value)” value in experiment [1] came out at 76.0. As for `CC1=C(O)C(=O)C(C)O1` (centres unmarked) [Compound 5, 4-hydroxy-2,5-dimethyl-3(2H)-furanone, reference compound], in experiment [1], the “AI-2 amount (relative value)” value amounted to 77.0. With `COC1(c2ccccc2)OC=C(c2ccccc2)C1=O` (centres unmarked) [Compound 6, 2-methoxy-2,4-diphenyl-3(2H)-furanone, reference compound], the “AI-2 amount (relative value)” value in experiment [1] is reported as 88.9. As to `CCCCCC1=CCCC1=O` [Compound 7, 2-pentyl-2-cyclopentene-1-one, reference compound], the “AI-2 amount (relative value)” value in experiment [1] was 63.4.
